Experimental data reported in patent US20110117055A1, “Methods of Treating Hepatitis C Virus with Oxoacetamide Compounds” (priority 2009, published 2011).
“Also recorded” adds a separate entry of the source.

Assays:
[1] = test system: HCV genotype 1b subgenomic replicon; assay: HCV replicon assay (HCV1b replicon cells, NS5A ELISA); format: cell-based; details: 3 days
Method: Alternatively, Hut1b cells (Huh7 cells stably replicating HCV genotype 1b subgenomic replicon) were treated with serial dilutions of the test compound for 72 hours. Replication efficiency was monitored by ELISA assay using anti-HCV NS5A monoclonal antibody (Virogen).
Increasing amounts of compound were inoculated onto HCV1b replicon cells and incubated for 3 days. Following incubation, HCV replication was monitored with NS5A protein expression by ELISA.

[2] = test system: HCV1a/2a chimeric virus; assay: HCV entry assay with HCV1a/2a chimeric virus; format: cell-based, HCV genotype 1a; details: compared with HCV2a chimeric virus
Text: Since HCV genotype 1 is the most prevalent genotype among the variants of HCV, we constructed an HCV1a/2a chimeric infectious clone with two cell-culture adaptive mutations introduced. Sequences for the structural proteins (including C, E1, and E2), p7, and NS2 were derived from HCV genotype 1a H77 strain. The rest of nonstructural proteins (NS3 to NS5B) and 3′ NTR were derived from HCV genotype 2a JFH strain. 5′NTR was originated from HCV2aJ6 (FIG. 7). […] Therefore, both HCV1a/2aCh virus and HCV1a/2aChLuc virus with Y361H and Q1251L mutations were successively produced in Huh7 cells and used for HCV entry assay.

[3] = test system: HCV; assay: Combination of viral entry inhibitor with IFN-α, HCVcc infection system, luciferase assay; format: cell-based; details: Huh7 cells, 72 hrs
Method: The current standard of care for the treatment of chronic hepatitis C is the combination of pegylated IFN-α (interferon-alpha) and ribavirin. […] Huh7 cells were incubated with various concentrations of Compound 1 or interferon alone, or combinations of both for 72 hrs, and the anti-HCV activity was measured by luciferase assays. The same was experiment was performed for Compound 5.

[4] = test system: HCV1a chimeric virus and 2a chimeric virus; assay: Combination of viral entry inhibitor with ribavirin; format: cell-based, HCV; details: ribavirin 15 μM
Method: Varying amounts of each compound were coincubated with a high concentration of ribavirin (15 μM).

[5] = test system: HCV2aChLuc (NS3:A156S); assay: Infectivity of protease mutant virus versus wild type in the presence of compounds; format: cell-based, HCV genotype 2a; details: HCV2aChLuc (NS3:A156S) vs wild type HCV2aChLuc
Text: Therefore, we introduced A156S mutation in the backbone of HCV2aChLuc genome and investigated the infectivity of the mutant virus in the presence of compounds.

[6] = test system: HCV2aCh (E2:G451R) mutant virus; assay: E2:G451R mutant virus, immuno-fluorescence read-out; format: cell-based, HCV genotype 2a
Method: IF analysis: Following aspiration of supernatant from a 24-well plate, 1 ml of ice cold methanol was added to each well and the plate was stored overnight at −20° C. The following day, methanol was removed and the plates were air-dried at room temperature for about 30 minutes. The plate was then rinsed/rehydrated with two washes of PBS (˜5 minutes/wash). To block non-specific antibody binding, cells were incubated in blocking buffer (1% BSA, 0.2% skim milk in PBS) for 1 hour at room temperature. Primary antibody (mouse anti-HCV Core; Affinity BioReagents, MA1-080) was diluted 1:1000 in PBS+0.1% Tween-20 and incubated overnight at 4° C. on rocker (˜200 μl of antibody/well). The next day, wells were washed with PBS (three washes of 5 minutes each) and then incubated for 30 minutes at room temperature with a secondary antibody: goat anti-mouse_AlexaFluor488 (1:1000 dilution in PBS/Tween; Molecular Probes/Invitrogen #A11001). The cells were then washed with PBS three times (5 minutes each), including once with Hoechst dye (0.4 ug/ml; Molecular Probes/Invitrogen #H3570) to counterstain the nuclei of cells. Immunofluorescence staining was analyzed using 10× objective on a Zeiss fluorescent microscope.

[7] = test system: HCV2a/2aChRluc virus; assay: Compound 5 with ribavirin or VX950 in the HCV2a/2aChRluc system; format: cell-based, HCV genotype 2a
Method: 100 μl of serially diluted compound solutions (100, 30, 10, 3, 1, 0.3, and 0.1 nM) was inoculated onto Huh-7 cells in a 96-well plate. Subsequently, 100 ul (TCID50, ˜0.6) of HCV2a/2aChRluc virus was added onto the cells. After co-incubation for 72 hrs, Renilla luciferase expression was determined (Renilla Luciferase Assay, Promega) and reported as relative light units (RLU).
Data analysis. Determinations of compound interactions were quantified based on the median-effect principle described by Chou and Talalay. Chou T., Talalay P., Adv. Enzyme. Regul., 1984, 22:27-55. Combination indices (CIs) were determined using Calcusyn (Biosoft) for each experiment at the EC50, EC75, and EC90 levels. Five replicates per condition were evaluated. A CI<0.9 was considered synergistic, a CI≧0.9 and ≦[…] was considered additive, and a CI>1.1 was deemed antagonistic.

[8] = test system: SR-B1 pathway; details: human subjects; cited from earlier work
[9] = Cytotoxicity of anti-HCV compounds (CC50, Table 4); details: human, Huh7.5.1 cells

For `COc1c(NC(=O)C(=O)c2ccc(OCCN3CCOCC3)c3ccccc23)cc(C(C)(C)C)cc1NS(C)(=O)=O` [Compound 5, N-(5-tert-butyl-2-methoxy-3-(methylsulfonamido)phenyl)-2-(4-(2-morpholinoethoxy)naphthalen-1-yl)-2-oxoacetamide], the “effect on HCV replication (NS5A protein expression by ELISA)” value [1] was “did not measurably inhibit; also recorded: no measurable effect”, the “inhibition of HCV1a chimeric virus” value [2] was “inhibited” and the “effect of combination with IFN-α on inhibition of HCV infection in cell culture” value [3] was “additive to moderate synergistic effect”. For the same molecule, the “effect of combination with ribavirin” value [4] was “no antagonistic effect”, the “resistance of NS3:A156S mutant virus versus wild type (inhibition of infectivity)” value [5] was “no significant difference” and the “sensitivity of E2 mutant relative to wild-type virus, immuno-fluorescence” value [6] was “more resistant”. For the same molecule, the “interaction with VX-950” value ([7]; HCV2a/2aCHRLuc system) was “consistent synergy”, the “effect of combination with ribavirin” value ([7]; ribavirin 15 μM) was “no antagonistic effect” and the HDL levels [8] was “raised HDL levels”. For the same molecule, the CC50 [9] was greater than 100 µM.
